Experiments:
CDK2/Cyclin E1 = CDK2/Cyclin E1 (Homo sapiens (Human), UniProt P24941); experiment: In-vitro inhibition of CDK2/Cyclin E1 kinase activity (Caliper mobility shift); assay type: biochemical; conditions: for Ki: Ki calculated from IC50 under Km ATP condition (Cheng and Prusoff); for Selectivity (CDK2 Ki/CDK7 KD): Ki off-target / KD CDK7 (SPR)
Excerpt: (§1) CDK2/Cyclin E1 was purchased from Biortus; batch No.: 20150228-BP469/477/691; CDK7/Cyclin H/MAT1 was purchased from Biortus; Batch No.: 20190326-BP487/492/479; CDK9/Cyclin T1 was purchased from Biortus; Batch No.: 20200727-BP488/792/691; CDK12/Cyclin K was purchased from Biortus; Batch No.: 20200526-BP1642/1648/691; MES was purchased from BiRoYee (Baoruyi); Batch No.: 67GR9637; BSA was purchased from Aladdin; Batch No.: H1601024; ATP was purchased from VWR; Batch No.: 97061-226; EDTA was purchased from Sinopharm Group; Batch No.: 20200521; and staurosporine was purchased from Selleckchem; Batch No.: S1421.
(§2) This experiment was used for determining the inhibition of the activities of CDK2, CDK7, CDK9 and CDK12 kinases by the compound. The kinase reaction carried out by the present invention was measured in a 384-well plate, the final measured volume was 16 μl, and the reaction temperature was 27° C. The concentrations of the kinases were determined by optimization experiment. The specific experimental process was as follows: • 1) preparation of kinase solutions: • kinase solution (CDK2/Cyclin E1): the kinase was diluted in a assay buffer solution ((20 mM MES pH 6.75, 0.01% Tween 20, 0.05 mg/mL BSA, 2 mM MgCl2) to obtain an enzyme solution with the corresponding 2.4× concentration; • kinase solution (CDK7/Cyclin H/MAT1): the kinase was diluted in the assay buffer solution (20 mM MES pH 6.75, 0.01% Tween 20, 0.05 mg/mL BSA, 6 mM MgCl2) to obtain an enzyme solution with the corresponding 2.4× concentration; • kinase solution (CDK9/Cyclin T1): the kinase was diluted in the assay buffer solution (20 mM MES pH 6.75, 0.01% Tween 20, 0.05 mg/mL BSA, 10 mM MgCl2) to obtain an enzyme solution with the corresponding 2.4× concentration; and • kinase solution (CDK12/Cyclin K): the kinase was diluted in a assay buffer solution (80 mM MES pH 6.5, 0.01% Tween 20, 0.05 mg/mL BSA, 10 mM MgCl2) to obtain an enzyme solution with the corresponding 2.4× concentration. • 2) Preparation of compound solutions: the compound was dissolved in dimethyl sulfoxide (DMSO) at a concentration of 10 mM, the compound was diluted to 10 concentration gradients of 25 nM to 500 μM with DMSO during use, diluted in ultrapure water by 8.3 times respectively to obtain compound solutions with 6× concentration. • 3) Preparation of a polypeptide substrate and ATP solution: the polypeptide substrate and ATP were diluted in the assay buffer solution to obtain a polypeptide substrate and ATP mixed solution with 2.4× concentration. • 4) Kinase reaction process: • 2 ul of the test compound solution, 5 ul of the polypeptide substrate and ATP mixed solution and 5 ul of an enzyme solution were mixed and incubated at 27° C. (CDK2 was incubated for 60 min, CDK7 was incubated for 70 min, CDK9 was incubated for 70 min, and CDK12 was incubated for 280 min), and then 4 ul of EDTA with a concentration of 150 mM was added into each sample to terminate the reaction. […] The data was calculated with GraphPad Prism version 9.0, and an IC50 value was obtained by adjusting a nonlinear regression model using a dose reaction curve. The calculation formula was Y=Bottom+(Top-Bottom)/(1+10^((LogIC50−X)*HillSlope)). X represents a log value (log of dose or concentration); Y represents an inhibition rate (% inhibition, increasing as x increases) which was increased along with the increase of X; Top represents maximum response; Bottom represents baseline response; and HillSlope represents a curve slope.

CDK9/Cyclin T1 = CDK9/Cyclin T1 (Homo sapiens (Human), UniProt P50750); experiment: In-vitro inhibition of CDK9/Cyclin T1 kinase activity (Caliper mobility shift); assay type: biochemical; conditions: for Ki: Ki calculated from IC50 under Km ATP condition (Cheng and Prusoff); for Selectivity (CDK9 Ki/CDK7 KD): Ki off-target / KD CDK7 (SPR)
CDK9/Cyclin T1, sequence (P50750 whole entry): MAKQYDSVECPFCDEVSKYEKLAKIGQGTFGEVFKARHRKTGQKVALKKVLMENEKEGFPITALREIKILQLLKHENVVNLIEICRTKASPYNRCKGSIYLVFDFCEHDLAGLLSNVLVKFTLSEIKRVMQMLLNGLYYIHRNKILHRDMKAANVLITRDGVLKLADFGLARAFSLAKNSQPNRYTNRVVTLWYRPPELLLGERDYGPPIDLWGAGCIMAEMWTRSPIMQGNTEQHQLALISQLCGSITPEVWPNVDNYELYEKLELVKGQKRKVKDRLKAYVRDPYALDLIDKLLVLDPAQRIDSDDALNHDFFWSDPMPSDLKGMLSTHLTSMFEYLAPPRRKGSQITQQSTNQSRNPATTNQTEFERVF
CDK9/Cyclin T1, sequence (O60563 whole entry partner): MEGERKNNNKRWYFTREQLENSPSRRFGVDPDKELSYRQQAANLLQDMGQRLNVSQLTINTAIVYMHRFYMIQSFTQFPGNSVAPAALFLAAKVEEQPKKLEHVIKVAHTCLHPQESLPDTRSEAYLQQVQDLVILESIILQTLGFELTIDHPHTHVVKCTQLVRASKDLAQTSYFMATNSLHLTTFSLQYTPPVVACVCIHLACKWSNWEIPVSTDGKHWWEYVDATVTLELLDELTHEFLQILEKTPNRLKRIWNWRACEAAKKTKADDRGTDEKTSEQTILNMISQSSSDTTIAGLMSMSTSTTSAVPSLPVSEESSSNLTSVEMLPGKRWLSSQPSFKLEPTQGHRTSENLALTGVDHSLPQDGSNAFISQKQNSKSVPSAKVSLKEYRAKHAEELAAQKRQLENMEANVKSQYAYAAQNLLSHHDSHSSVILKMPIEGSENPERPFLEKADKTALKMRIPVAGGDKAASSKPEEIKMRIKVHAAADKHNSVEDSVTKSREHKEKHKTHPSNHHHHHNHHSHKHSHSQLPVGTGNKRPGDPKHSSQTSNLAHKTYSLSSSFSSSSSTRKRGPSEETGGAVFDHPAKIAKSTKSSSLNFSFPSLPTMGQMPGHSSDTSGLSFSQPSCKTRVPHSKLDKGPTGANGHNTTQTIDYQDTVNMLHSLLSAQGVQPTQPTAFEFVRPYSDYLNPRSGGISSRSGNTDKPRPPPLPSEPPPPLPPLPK
Excerpt: as §1, §2

CDK12/Cyclin K = CDK12/Cyclin K (Homo sapiens (Human), UniProt Q9NYV4); experiment: In-vitro inhibition of CDK12/Cyclin K kinase activity (Caliper mobility shift); assay type: biochemical; conditions: for Ki: Ki calculated from IC50 under Km ATP condition (Cheng and Prusoff); for Selectivity (CDK12 Ki/CDK7 KD): Ki off-target / KD CDK7 (SPR)
CDK12/Cyclin K, sequence (Q9NYV4 whole entry): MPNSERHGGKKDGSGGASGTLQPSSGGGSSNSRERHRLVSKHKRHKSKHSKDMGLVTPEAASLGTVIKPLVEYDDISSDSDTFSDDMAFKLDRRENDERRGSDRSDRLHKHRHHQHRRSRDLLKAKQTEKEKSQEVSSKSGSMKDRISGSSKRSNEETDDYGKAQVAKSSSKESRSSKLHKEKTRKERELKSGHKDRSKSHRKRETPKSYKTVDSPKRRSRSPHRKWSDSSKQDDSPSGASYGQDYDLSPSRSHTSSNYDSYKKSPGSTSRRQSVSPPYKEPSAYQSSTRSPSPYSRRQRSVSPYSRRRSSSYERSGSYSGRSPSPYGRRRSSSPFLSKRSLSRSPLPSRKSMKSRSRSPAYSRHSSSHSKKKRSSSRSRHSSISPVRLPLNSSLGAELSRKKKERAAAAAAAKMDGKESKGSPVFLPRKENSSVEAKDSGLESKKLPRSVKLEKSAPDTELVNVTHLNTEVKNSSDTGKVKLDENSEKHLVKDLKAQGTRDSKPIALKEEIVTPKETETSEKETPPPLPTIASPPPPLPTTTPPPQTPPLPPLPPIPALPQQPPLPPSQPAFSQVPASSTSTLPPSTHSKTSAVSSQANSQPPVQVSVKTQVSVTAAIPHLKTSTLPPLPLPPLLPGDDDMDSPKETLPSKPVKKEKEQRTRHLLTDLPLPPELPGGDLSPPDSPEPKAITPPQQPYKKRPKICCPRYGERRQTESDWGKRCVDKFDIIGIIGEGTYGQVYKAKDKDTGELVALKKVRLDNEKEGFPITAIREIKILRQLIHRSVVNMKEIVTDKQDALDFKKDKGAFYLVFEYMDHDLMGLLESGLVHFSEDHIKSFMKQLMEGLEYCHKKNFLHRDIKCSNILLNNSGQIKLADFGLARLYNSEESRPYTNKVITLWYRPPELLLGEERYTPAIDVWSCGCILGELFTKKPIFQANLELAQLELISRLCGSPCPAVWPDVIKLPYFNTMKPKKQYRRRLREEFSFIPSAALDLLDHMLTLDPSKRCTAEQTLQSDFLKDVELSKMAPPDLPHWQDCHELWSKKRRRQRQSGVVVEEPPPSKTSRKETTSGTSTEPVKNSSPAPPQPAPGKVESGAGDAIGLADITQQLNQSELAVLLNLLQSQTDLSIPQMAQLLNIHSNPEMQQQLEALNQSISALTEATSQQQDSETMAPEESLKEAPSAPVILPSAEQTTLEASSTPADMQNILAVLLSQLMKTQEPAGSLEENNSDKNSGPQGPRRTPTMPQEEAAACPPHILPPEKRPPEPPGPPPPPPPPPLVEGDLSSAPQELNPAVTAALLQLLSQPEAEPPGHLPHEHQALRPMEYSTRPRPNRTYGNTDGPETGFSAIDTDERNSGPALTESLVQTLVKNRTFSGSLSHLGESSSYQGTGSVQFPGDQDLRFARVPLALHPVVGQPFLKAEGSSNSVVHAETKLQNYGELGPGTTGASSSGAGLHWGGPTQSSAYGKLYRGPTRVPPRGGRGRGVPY
CDK12/Cyclin K, sequence (O75909 whole entry partner): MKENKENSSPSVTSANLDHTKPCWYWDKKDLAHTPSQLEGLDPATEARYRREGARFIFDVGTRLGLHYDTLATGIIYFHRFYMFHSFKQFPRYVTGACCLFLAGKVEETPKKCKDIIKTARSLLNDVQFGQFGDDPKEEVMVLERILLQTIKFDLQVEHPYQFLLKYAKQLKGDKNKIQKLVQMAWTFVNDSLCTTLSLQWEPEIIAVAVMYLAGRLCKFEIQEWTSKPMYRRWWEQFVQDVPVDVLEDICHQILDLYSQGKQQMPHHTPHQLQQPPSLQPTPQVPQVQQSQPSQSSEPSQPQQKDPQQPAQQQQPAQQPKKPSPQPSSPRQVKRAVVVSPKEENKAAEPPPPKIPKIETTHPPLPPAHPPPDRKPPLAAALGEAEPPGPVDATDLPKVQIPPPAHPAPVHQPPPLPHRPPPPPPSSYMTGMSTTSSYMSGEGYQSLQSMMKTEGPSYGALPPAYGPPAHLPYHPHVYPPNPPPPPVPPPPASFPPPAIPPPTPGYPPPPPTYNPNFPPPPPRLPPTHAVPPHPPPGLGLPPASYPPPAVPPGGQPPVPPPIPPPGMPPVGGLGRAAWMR
Excerpt: as §1, §2

[1] = tested on: HCC70 human breast ductal cancer cells; experiment: HCC70 tumor cell proliferation inhibition (CellTiter-Glo); assay type: cell-based; conditions: 3 d culture
Experimental: HCC70 was purchased from ATCC; article No.: CRL-2315; RPMI1640 was purchased from Gibco; article No.: 11875-093; Pancreatin (including EDTA) was purchased from Gibco; article No.: 25200-072; FBS was purchased from Gibco; article No.: 10099-141C; CellTiter-Glo was purchased from Promega; article No.: G7573; DMSO was purchased from VWR AMRESCO; article No.: 0231-500ML; Staurosporine was purchased from Selleck; article No.: S1421; a cell counter was purchased from CHEMOMETEC; model: NC-200; and a microplate reader was purchased from PerkinElmer; Model: Envison.
(§3) HCC70 was human breast ductal cancer cells cultured in an RPMI-1640 culture medium containing 10% FBS. Cells in logarithmic phase were taken, and the cells were subjected to digesting, collecting and counting with pancreatin-EDTA, 2000 HCC70 cells/well were inoculated in a 384-well cell plate, and were cultured in 5% CO2 overnight. A 1000× compound stock solution with 3.16 times of gradient concentration was prepared with DMSO, and was diluted 100 times to 10× compound stock solution with a culture medium, and 10× compound stock solution was added into each cell culture well on the next day after cell inoculation, wherein the final concentration was 1×, and the DMSO content was 0.1%. The cell group was treated with DMSO as an experimental control (control), and the cell group was treated with 5 μM of Staurosporine as a blank control (blank).

CDK7/Cyclin H/MAT1 = CDK7/Cyclin H/MAT1 (Homo sapiens (Human), UniProt P50613); experiment: In-vitro inhibition of CDK7/Cyclin H/MAT1 kinase activity (Caliper mobility shift); assay type: biochemical; conditions: ATP 50 μM, 70 min, 27° C.; read-out: CDK7/CyclinH/MAT1 IC50 assay
CDK7/Cyclin H/MAT1, sequence (P50613 whole entry): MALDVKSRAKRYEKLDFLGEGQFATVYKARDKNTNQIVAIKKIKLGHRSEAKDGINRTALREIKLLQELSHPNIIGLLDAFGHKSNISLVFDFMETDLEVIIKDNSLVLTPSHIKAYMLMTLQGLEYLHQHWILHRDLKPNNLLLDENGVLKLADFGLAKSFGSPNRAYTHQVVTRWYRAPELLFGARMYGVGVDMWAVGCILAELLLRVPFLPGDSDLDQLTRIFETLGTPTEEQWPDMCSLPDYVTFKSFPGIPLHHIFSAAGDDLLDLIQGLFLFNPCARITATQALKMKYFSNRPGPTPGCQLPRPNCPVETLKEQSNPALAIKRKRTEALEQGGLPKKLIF
CDK7/Cyclin H/MAT1, sequence (P51946 whole entry partner): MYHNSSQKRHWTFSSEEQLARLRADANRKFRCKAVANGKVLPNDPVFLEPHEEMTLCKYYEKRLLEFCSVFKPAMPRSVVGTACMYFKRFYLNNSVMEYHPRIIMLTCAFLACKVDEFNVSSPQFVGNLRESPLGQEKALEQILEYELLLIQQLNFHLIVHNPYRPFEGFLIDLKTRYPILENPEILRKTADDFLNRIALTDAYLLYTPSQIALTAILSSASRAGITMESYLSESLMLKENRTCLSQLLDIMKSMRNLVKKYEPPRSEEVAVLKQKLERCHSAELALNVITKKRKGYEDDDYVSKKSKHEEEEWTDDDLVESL
CDK7/Cyclin H/MAT1, sequence (P51948 whole entry partner): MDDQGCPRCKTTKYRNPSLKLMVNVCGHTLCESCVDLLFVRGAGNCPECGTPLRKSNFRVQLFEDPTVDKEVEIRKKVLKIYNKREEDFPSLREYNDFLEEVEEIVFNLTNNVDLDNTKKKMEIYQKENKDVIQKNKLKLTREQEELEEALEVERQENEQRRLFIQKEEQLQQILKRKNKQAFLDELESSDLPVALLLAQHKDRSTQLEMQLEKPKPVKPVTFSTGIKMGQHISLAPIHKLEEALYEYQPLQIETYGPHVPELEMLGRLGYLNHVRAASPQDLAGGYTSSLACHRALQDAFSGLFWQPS
Excerpt: as §1
This experiment was used for determining the inhibition of the activities of CDK2, CDK7, CDK9 and CDK12 kinases by the compound. The kinase reaction carried out by the present invention was measured in a 384-well plate, the final measured volume was 16 μl, and the reaction temperature was 27° C. The concentrations of the kinases were determined by optimization experiment. […] The data was calculated with GraphPad Prism version 9.0, and an IC50 value was obtained by adjusting a nonlinear regression model using a dose reaction curve. […]

[2] = tested on: OVCAR-3 human ovarian adenocarcinoma cells; experiment: OVCAR-3 tumor cell proliferation inhibition (CellTiter-Glo); assay type: cell-based; conditions: 3 d culture
Experimental: OVCAR-3 was purchased from ATCC; article No.: HTB-161; RPMI1640 was purchased from Gibco; article No.: 11875-093; Pancreatin (including EDTA) was purchased from Gibco; article No.: 25200-072; FBS was purchased from Gibco; Article No.: 10091-148; CellTiter-Glo was purchased from Promega; article No.: G7573; Bovine insulin was purchased from absin; article No.: abs9169; DMSO was purchased from VWR AMRESCO; article No.: 0231-500ML; Staurosporine was purchased from Selleck; article No.: S1421; a cell counter was purchased from CHEMOMETEC; model: NC-200; and a microplate reader was purchased from PerkinElmer; Model: Envison.
as §3, with “OVCAR-3” for “HCC70”, “ovarian adenocarcinoma” for “breast ductal cancer”, “20% FBS and 0.01 mg/mL of Bovine insulin.” for “10% FBS.”

[3] = In-vivo pharmacokinetic experiment in male beagles; parameters: species or system dog; conditions: beagle
Experimental: Experimental method and conditions: male beagles with weight of 8-11 kg were purchased from Jiangsu Marshall Biotechnology Co., Ltd. The to-be-tested compound was administered to 3 dogs at 0.2 mg/kg or 1.0 mg/kg (solvent: 2% DMSO+10% Kolliphor HS 15+88% (6.818% of hydroxypropyl-beta-cyclodextrin aqueous solution), 0.2 mg/mL or 1.0 mg/mL) by intravenous injection, and administered to 3 dogs at 2 mg/kg (solvent: 5% DMSO+95% (10% hydroxypropyl-beta-cyclodextrin salt aqueous solution, 0.4 mg/mL) by oral intragastric administration. Head vein blood sampling was carried out 5 min, 15 min, 30 min, 1 h, 2 h, 4 h, 8 h and 24 h after the administration, and 500 μL of each sample was collected. After collection, the samples were placed on ice, and plasma was centrifugally separated within 15 min for testing. The concentration of the medicine in the plasma was detected by liquid chromatography-tandem mass spectrometry (LC/MS/MS), and pharmacokinetic parameters were calculated with Phoenix WinNonlin software when the concentration was measured.

[4] = intravenous injection 0.2 mg/kg

CP(C)(=O)c1c2ccc3c(c[nH]c13)-c1nc(ncc1C(F)(F)F)N[C@H]1CC[C@@H](C1)NCCCCNC2=O [Compound Z5]
Ki (CDK2/Cyclin E1): 25.6 nM
Selectivity (CDK2 Ki/CDK7 KD) (CDK2/Cyclin E1): (CDK2 Ki/CDK7 KD): 160
Ki (CDK9/Cyclin T1): 95.5 nM
Selectivity (CDK9 Ki/CDK7 KD) (CDK9/Cyclin T1): (CDK9 Ki/CDK7 KD): 597
Ki (CDK12/Cyclin K): 26.1 nM
Selectivity (CDK12 Ki/CDK7 KD) (CDK12/Cyclin K): (CDK12 Ki/CDK7 KD): 163
IC50 [1]: 42.7 nM

(4^1S, 4^3S)-2^5-(trifluoromethyl)-1^1H-3,5,10-triaza-1(3,6)-indola-2(4,2)-pyrimidina-4(1,3)-cyclopentanacycloundecaphan-11-one [Compound Z2]
IC50 (CDK7/Cyclin H/MAT1): 4.58 nM
Ki (CDK2/Cyclin E1): 9.8 nM
Selectivity (CDK2 Ki/CDK7 KD) (CDK2/Cyclin E1): (CDK2 Ki/CDK7 KD): 70
Ki (CDK9/Cyclin T1): 10.6 nM
Selectivity (CDK9 Ki/CDK7 KD) (CDK9/Cyclin T1): (CDK9 Ki/CDK7 KD): 76
Ki (CDK12/Cyclin K): 22.7 nM
Selectivity (CDK12 Ki/CDK7 KD) (CDK12/Cyclin K): (CDK12 Ki/CDK7 KD): 162
IC50 [1]: 207 nM

CP(C)(=O)c1c2ccc3c(c[nH]c13)-c1nc(ncc1C(F)(F)F)N[C@H]1CC[C@@H](C1)NCCOCCNC2=O [Compound Z7, (4^1S,4^3S)-1^7-(dimethylphosphoryl)-2^5-(trifluoromethyl)-1H-8-oxa-3,5,11-triaza-1(3,6)-indola-2(4,2)-pyrimidina-4(1,3)-cyclopentanacyclododecaphan-12-one]
Ki (CDK2/Cyclin E1): 33.4 nM
Selectivity (CDK2 Ki/CDK7 KD) (CDK2/Cyclin E1): (CDK2 Ki/CDK7 KD): 566
Ki (CDK9/Cyclin T1): 217 nM
Selectivity (CDK9 Ki/CDK7 KD) (CDK9/Cyclin T1): (CDK9 Ki/CDK7 KD): 3675
Ki (CDK12/Cyclin K): 61.4 nM
Selectivity (CDK12 Ki/CDK7 KD) (CDK12/Cyclin K): (CDK12 Ki/CDK7 KD): 61.35
IC50 [1]: 41.1 nM

CN1C[C@@H](F)CCN(C)[C@H]2CC[C@@H](C2)Nc2ncc(C(F)(F)F)c(n2)-c2c[nH]c3c(P(C)(C)=O)c(ccc23)C1=O [Compound Z79, (4^1S,4^3S,8S)-1^7-(dimethylphosphoryl)-8-fluoro-5,10-dimethyl-2^5-(trifluoromethyl)-1^1H-3,5,10-triaza-1(3,6)-indola-2(4,2)-pyrimidina-4(1,3)-cyclopentanacycloundecaphan-11-one]
Ki (CDK2/Cyclin E1): 23.3 nM
Selectivity (CDK2 Ki/CDK7 KD) (CDK2/Cyclin E1): (CDK2 Ki/CDK7 KD): 192
Ki (CDK9/Cyclin T1): 134 nM
Selectivity (CDK9 Ki/CDK7 KD) (CDK9/Cyclin T1): (CDK9 Ki/CDK7 KD): 1103
Ki (CDK12/Cyclin K): 92.8 nM
Selectivity (CDK12 Ki/CDK7 KD) (CDK12/Cyclin K): (CDK12 Ki/CDK7 KD): 763
IC50 [1]: 66.5 nM
IC50 [2]: 84 nM

CN1CC(F)(F)CCN(C)[C@H]2CC[C@@H](C2)Nc2ncc(C(F)(F)F)c(n2)-c2c[nH]c3c(P(C)(C)=O)c(ccc23)C1=O [Compound Z65, (4^1S,43S)-1^7-(dimethylphosphoryl)-8,8-difluoro-5,10-dimethyl-2^5-(trifluoromethyl)-1^1H-3,5,10-triaza-1(3,6)-indola-2(4,2)-pyrimidina-4(1,3)-cyclopentanacycloundecaphan-11-one]
Ki (CDK9/Cyclin T1): 258 nM
IC50 [1]: 46.9 nM
IC50 [2]: 254 nM
AUC0~inf [3, 4]: 3097 ng·h/mL
CL [3, 4]: 1.23 mL/min/kg
T1/2 [3, 4]: 3.42 h
Vss [3, 4]: 0.24 L/kg
AUC0~inf ([3]; oral administration 2 mg/kg): 45620 ng·h/mL
Cmax ([3]; oral administration 2 mg/kg): 6623 ng/mL
F(%) ([3]; oral administration 2 mg/kg): 147%
T1/2 ([3]; oral administration 2 mg/kg): 4.44 h

O=C1NCCOCCN2CC[C@@H](C2)Nc2ncc(C(F)(F)F)c(n2)-c2c[nH]c3cc1ccc23 [Compound Z1, (4^3S)-2^5-(trifluoromethyl)-1^1H-7-oxa-3,10-diaza-1(3,6)-indola-2(4,2)-pyrimidina-4(3,1)-pyrrolidinacycloundecaphan-11-one]
IC50 (CDK7/Cyclin H/MAT1): 11 nM
Ki (CDK2/Cyclin E1): 154 nM
Ki (CDK9/Cyclin T1): 52.2 nM
Ki (CDK12/Cyclin K): 62.6 nM
